Assay results published in BindingDB's records for doi:10.1016/S0960-894X(00)80254-1 (1991).

Test: Inhibition of angiotensin I phosphorylation catalyzed by the protein-tyrosine kinase p56 lck partially purified from bovine thymus.

`O=C(Nc1ccncc1)c1ccncc1` [N-Pyridin-4-yl-isonicotinamide] and `O=C(Nc1ccncc1)c1cccnc1` are within 1.5-fold of each other in IC50: 2320 µM for the first, 2120 µM for the second.

Going from `COc1cc(CNc2ccccn2)cc(OC)c1` [(3,5-Dimethoxy-benzyl)-pyridin-2-yl-amine] to `COc1cc(OC)cc(C(=O)Nc2ccccn2)c1` [3,5-Dimethoxy-N-pyridin-2-yl-benzamide], the IC50 falls from > 3280 µM to 205 µM. The second is the more potent here.

`COc1cc(OC)cc(C(=O)Nc2ccncc2)c1` [3,5-Dimethoxy-N-pyridin-4-yl-benzamide] and `COc1cc(C(=O)Nc2ccncc2)cc(OC)c1OC` [3,4,5-Trimethoxy-N-pyridin-4-yl-benzamide] cannot be ordered by IC50: 3100 µM for the first, > 2780 µM for the second.

First: COc1ccc(/C=C/c2cccnc2)cc1OC [3-(3,4-dimethoxystyryl)pyridine]
Second: COc1ccc(/C=C/c2ccccn2)cc1OC [2-[(E)-2-(3,4-Dimethoxy-phenyl)-vinyl]-pyridine]
The IC50 of the first is 4.7-fold lower: 178 µM for the first, 829 µM for the second.

Compared with `c1cc(CCc2ccncc2)ccn1` [4-(2-pyridin-4-ylethyl)pyridine], `COc1ccc(CCc2cccnc2)cc1OC` [3-[2-(3,4-Dimethoxy-phenyl)-ethyl]-pyridine] is 2.2-fold lower in IC50: 2910 µM for the first, 1320 µM for the second. The second is the more potent here.

Going from `C(=C\c1ccccn1)/c1ccccn1` [2-[(E)-2-pyridin-2-ylvinyl]pyridine] to `COc1ccc(/C=C/c2cccnc2)cc1` [3-[(E)-2-(4-Methoxy-phenyl)-vinyl]-pyridine], the IC50 rises from 1230 µM to > 3790 µM. The first is the more potent here.

`COc1cc(CNc2ccccn2)cc(OC)c1OC` [Pyridin-2-yl-(3,4,5-trimethoxy-benzyl)-amine] and `COc1cc(CCc2cccnc2)cc(OC)c1OC` [3-[2-(3,4,5-Trimethoxy-phenyl)-ethyl]-pyridine] cannot be ordered by IC50: > 2920 µM for the first, > 2930 µM for the second.

Molecule `COc1cc(C(=O)Nc2cccnc2)cc(OC)c1OC` [3,4,5-Trimethoxy-N-pyridin-3-yl-benzamide] has an IC50 of 999 µM.
